Laboratory results reported in ChEMBL document CHEMBL1201862, “PubChem BioAssay data set” (2004).
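Exposure lasted 48 hours, with cells grown in 96-well plates and compounds tested at five concentrations. The concentration for 50% growth inhibition is given as GI50.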 The source made the active and inactive calls. Rule as the data show it: active = GI50 up to about 1.1 µM and inactive = higher.

Legend:
Test in all cases: inhibition of tumour cell growth, NCI panel, 48 h
EKVX = tested on: EKVX
KM-20L2 = tested on: KM-20L2
CCRF-CEM = tested on: CCRF-CEM
NCI-H460 = tested on: NCI-H460
OVCAR-4 = tested on: OVCAR-4
COLO 205 = tested on: COLO 205
SNB-19 = tested on: SNB-19
HCT-15 = tested on: HCT-15
OVCAR-8 = tested on: OVCAR-8
SF-268 = tested on: SF-268
NCI-H522 = tested on: NCI-H522
SR = tested on: SR
LXFL 529 = tested on: LXFL 529
Malme-3M = tested on: Malme-3M
SW-620 = tested on: SW-620
DMS-114 = tested on: DMS-114
DLD-1 = tested on: DLD-1
OVCAR-5 = tested on: OVCAR-5

| Compound | GI50 (EKVX) | GI50 (KM-20L2) | GI50 (CCRF-CEM) | GI50 (NCI-H460) | GI50 (OVCAR-4) | GI50 (COLO 205) | GI50 (SNB-19) | GI50 (HCT-15) [µM] | GI50 (OVCAR-8) | GI50 (SF-268) | GI50 (NCI-H522) | GI50 (SR) | GI50 (LXFL 529) | GI50 (Malme-3M) | GI50 (SW-620) | GI50 (DMS-114) | GI50 (DLD-1) | GI50 (OVCAR-5) |
| --- | --- | --- | --- | --- | --- | --- | --- | --- | --- | --- | --- | --- | --- | --- | --- | --- | --- | --- |
| COC(=O)C1CCc2nnc(-c3cccnc3)n21 (centres undefined) | > 100 µM (inactive) | > 100 µM (inactive) | > 100 µM (inactive) | > 100 µM (inactive) | > 100 µM (inactive) | > 100 µM (inactive) | > 100 µM (inactive) | > 100 | > 100 µM (inactive) | > 100 µM (inactive) | > 100 µM (inactive) | > 100 µM (inactive) | > 100 µM (inactive) | > 100 µM (inactive) | > 100 µM (inactive) | > 100 µM (inactive) | > 100 µM (inactive) |  |
| CC(C)C1=CC(=O)C(C)(C2=NC(C)(C)CO2)c2ccccc21 (centres undefined) | 96.6 µM (inactive) | > 100 µM (inactive) | > 100 µM (inactive) | > 100 µM (inactive) | > 100 µM (inactive) | > 100 µM (inactive) | > 100 µM (inactive) | > 100 | > 100 µM (inactive) | > 100 µM (inactive) | 32.9 µM (inactive) | 60.3 µM (inactive) | 94.4 µM (inactive) | > 100 µM (inactive) | > 100 µM (inactive) | 51.4 µM (inactive) | > 100 µM (inactive) |  |
| CCCP1(=O)C=C(C)C(=C(Cl)Cl)C(C)=C1 (centres undefined) | 83 µM (inactive) | 18.3 µM (inactive) | 39.5 µM (inactive) | 37.4 µM (inactive) | > 100 µM (inactive) | 36.1 µM (inactive) |  | 30.7 | 37.9 µM (inactive) | 25.9 µM (inactive) | 18.3 µM (inactive) | 24.5 µM (inactive) | 30.1 µM (inactive) | 25.7 µM (inactive) | 32.1 µM (inactive) | 36.1 µM (inactive) | 67.3 µM (inactive) | > 100 µM (inactive) |
| CCCCCCCCCCCC(=O)OCCOCCOCCOCCOCCOCc1ccccc1 | > 100 µM (inactive) | > 100 µM (inactive) | > 100 µM (inactive) | > 100 µM (inactive) | > 100 µM (inactive) | > 100 µM (inactive) | > 100 µM (inactive) | > 100 | > 100 µM (inactive) | > 100 µM (inactive) | > 100 µM (inactive) | > 100 µM (inactive) | > 100 µM (inactive) | > 100 µM (inactive) | > 100 µM (inactive) | > 100 µM (inactive) | > 100 µM (inactive) | > 100 µM (inactive) |
| Cc1c(Cl)ccc2c1NC(=O)C2(O)C(C(=O)c1ccccc1)c1ccccc1 (centres undefined) | 43.3 µM (inactive) | 46 µM (inactive) | 14.7 µM (inactive) | 64.9 µM (inactive) | 10.7 µM (inactive) | > 100 µM (inactive) | 62.8 µM (inactive) | 45.7 | 69.7 µM (inactive) | 62.7 µM (inactive) | 27.7 µM (inactive) | 27.3 µM (inactive) | 57.3 µM (inactive) | 93.3 µM (inactive) | 42.4 µM (inactive) | 21.9 µM (inactive) | 83.9 µM (inactive) | 32.7 µM (inactive) |
| Cc1ccc(NC(=O)C(=O)Cc2cccc[n+]2[O-])cc1C | > 100 µM (inactive) | > 100 µM (inactive) | > 100 µM (inactive) | > 100 µM (inactive) | > 100 µM (inactive) | > 100 µM (inactive) | > 100 µM (inactive) | > 100 | > 100 µM (inactive) | > 100 µM (inactive) | > 100 µM (inactive) | > 100 µM (inactive) | > 100 µM (inactive) | > 100 µM (inactive) | > 100 µM (inactive) | > 100 µM (inactive) | > 100 µM (inactive) | > 100 µM (inactive) |
| C=CCc1ccc(Oc2cc(CC=C)c3c(c2O)O[C@@H](CO)[C@H]3c2ccc(O)c(-c3cc(CC=C)ccc3O)c2)cc1 | 46.7 µM (inactive) | 32.9 µM (inactive) | 20.5 µM (inactive) | 24 µM (inactive) | 54.7 µM (inactive) | 52 µM (inactive) | 39.5 µM (inactive) | 30.2 | 41.7 µM (inactive) | 58.7 µM (inactive) | 18.3 µM (inactive) | 12.4 µM (inactive) | 30.8 µM (inactive) | > 100 µM (inactive) | 33.9 µM (inactive) | 22.5 µM (inactive) | 52.1 µM (inactive) | > 100 µM (inactive) |
| N#CCCN(c1ccc(/C=N/c2ccc(C(=O)O)cc2)cc1)S(=O)(=O)c1ccccc1 | > 100 µM (inactive) | > 100 µM (inactive) | > 100 µM (inactive) | > 100 µM (inactive) | > 100 µM (inactive) | > 100 µM (inactive) | > 100 µM (inactive) | > 100 | > 100 µM (inactive) | > 100 µM (inactive) | > 100 µM (inactive) | > 100 µM (inactive) | > 100 µM (inactive) | > 100 µM (inactive) | > 100 µM (inactive) | > 100 µM (inactive) | > 100 µM (inactive) | > 100 µM (inactive) |
| CCOC(=O)/N=c1/nc(N(C)C)ss1 | > 100 µM (inactive) | > 100 µM (inactive) | > 100 µM (inactive) | > 100 µM (inactive) | > 100 µM (inactive) |  | > 100 µM (inactive) | > 100 | > 100 µM (inactive) | > 100 µM (inactive) | > 100 µM (inactive) | > 100 µM (inactive) | > 100 µM (inactive) | > 100 µM (inactive) | > 100 µM (inactive) | > 100 µM (inactive) | > 100 µM (inactive) | > 100 µM (inactive) |
| O=C1C=C(Nc2ccc(Cl)cc2Cl)c2ccccc2C1=O | > 100 µM (inactive) | > 100 µM (inactive) | 30.8 µM (inactive) | 26.1 µM (inactive) | 87.9 µM (inactive) | > 100 µM (inactive) | 39.3 µM (inactive) | 29.5 | 80 µM (inactive) | > 100 µM (inactive) | 29.8 µM (inactive) | 29.4 µM (inactive) | 27.2 µM (inactive) | 24.9 µM (inactive) | 39.5 µM (inactive) | 23.6 µM (inactive) | 44.5 µM (inactive) | > 100 µM (inactive) |
| CC(C)C(=O)NC(=S)Nc1ccc([N+](=O)[O-])cc1C#N | 63.8 µM (inactive) | > 100 µM (inactive) | > 100 µM (inactive) | > 100 µM (inactive) | > 100 µM (inactive) | 16.8 µM (inactive) | > 100 µM (inactive) | > 100 | > 100 µM (inactive) | > 100 µM (inactive) | > 100 µM (inactive) | > 100 µM (inactive) | > 100 µM (inactive) | > 100 µM (inactive) | > 100 µM (inactive) | > 100 µM (inactive) | > 100 µM (inactive) | > 100 µM (inactive) |
